Reference: PubChem BioAssay (NCI)
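The compound was tested at five concentrations on cells cultured in 96-well plates, with a 48-hour exposure period. Here, GI50 denotes the concentration required for 50% inhibition of growth. Definition used: TGI = concentration required for complete inhibition of growth.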

How the values were obtained:
Test in all cases: NCI anticancer screen, dose series, 48 h
786-0 renal = tested on: 786-0 renal
A498 renal = tested on: A498 renal
A549 NSCLC = tested on: A549 NSCLC
ACHN renal = tested on: ACHN renal
BT-549 breast = tested on: BT-549 breast
CAKI-1 renal = tested on: CAKI-1 renal
CCRF-CEM leukemia = tested on: CCRF-CEM leukemia
COLO 205 colon = tested on: COLO 205 colon
DU-145 prostate = tested on: DU-145 prostate
EKVX NSCLC = tested on: EKVX NSCLC
HCC-2998 colon = tested on: HCC-2998 colon
HCT-116 colon = tested on: HCT-116 colon
HCT-15 colon = tested on: HCT-15 colon
HL-60(TB) leukemia = tested on: HL-60(TB) leukemia
HOP-62 NSCLC = tested on: HOP-62 NSCLC
HS 578T breast = tested on: HS 578T breast
HT29 colon = tested on: HT29 colon
IGROV1 ovarian = tested on: IGROV1 ovarian
K-562 leukemia = tested on: K-562 leukemia
KM12 colon = tested on: KM12 colon
LOX IMVI melanoma = tested on: LOX IMVI melanoma
M14 melanoma = tested on: M14 melanoma
MALME-3M melanoma = tested on: MALME-3M melanoma
MCF7 breast = tested on: MCF7 breast
MDA-MB-231 breast = tested on: MDA-MB-231 breast
MDA-MB-435 = tested on: MDA-MB-435
MDA-MB-468 breast = tested on: MDA-MB-468 breast
MOLT-4 leukemia = tested on: MOLT-4 leukemia
NCI-H226 lung = tested on: NCI-H226 lung
NCI-H23 lung = tested on: NCI-H23 lung
NCI-H460 lung = tested on: NCI-H460 lung
NCI-H522 lung = tested on: NCI-H522 lung
NCI/ADR-RES ovarian = tested on: NCI/ADR-RES ovarian
OVCAR-3 ovarian = tested on: OVCAR-3 ovarian
OVCAR-4 ovarian = tested on: OVCAR-4 ovarian
OVCAR-5 ovarian = tested on: OVCAR-5 ovarian
OVCAR-8 ovarian = tested on: OVCAR-8 ovarian
PC-3 prostate = tested on: PC-3 prostate
RPMI-8226 leukemia = tested on: RPMI-8226 leukemia
RXF 393 renal = tested on: RXF 393 renal
SF-268 CNS = tested on: SF-268 CNS
SF-295 CNS = tested on: SF-295 CNS
SF-539 CNS = tested on: SF-539 CNS
SK-MEL-2 melanoma = tested on: SK-MEL-2 melanoma
SK-MEL-28 melanoma = tested on: SK-MEL-28 melanoma
SK-MEL-5 melanoma = tested on: SK-MEL-5 melanoma
SK-OV-3 ovarian = tested on: SK-OV-3 ovarian
SN12C renal = tested on: SN12C renal
SNB-19 CNS = tested on: SNB-19 CNS
SR leukemia = tested on: SR leukemia
SW-620 colon = tested on: SW-620 colon
T-47D breast = tested on: T-47D breast
TK-10 renal = tested on: TK-10 renal
U251 CNS = tested on: U251 CNS
UACC-257 melanoma = tested on: UACC-257 melanoma
UACC-62 melanoma = tested on: UACC-62 melanoma
UO-31 renal = tested on: UO-31 renal

Compound `COc1ccc(C(=O)/C=C/c2cccnc2)cc1S(N)(=O)=O` has a GI50 (786-0 renal) of 11.2 µM, a TGI (786-0 renal) of 24.1 µM and a GI50 (A498 renal) of 21.7 µM. The TGI (A498 renal) was 53.6 µM, the GI50 (A549 NSCLC) was 13.8 µM and the TGI (A549 NSCLC) was 33.9 µM. It also gave a GI50 (ACHN renal) of 13.5 µM, a TGI (ACHN renal) of 25.5 µM and a GI50 (BT-549 breast) of 12.9 µM. It also gave a TGI (BT-549 breast) of 25.4 µM, a GI50 (CAKI-1 renal) of 12.7 µM and a TGI (CAKI-1 renal) of 24.9 µM. The GI50 (CCRF-CEM leukemia) was 12.6 µM, the TGI (CCRF-CEM leukemia) was 33.2 µM and the GI50 (COLO 205 colon) was 13.7 µM. For the same compound, the TGI (COLO 205 colon) was 29.8 µM, the GI50 (DU-145 prostate) was 11.2 µM and the TGI (DU-145 prostate) was 22.6 µM. It also gave a GI50 (EKVX NSCLC) of 11.9 µM, a TGI (EKVX NSCLC) of 24.2 µM and a GI50 (HCC-2998 colon) of 13.9 µM. It also gave a TGI (HCC-2998 colon) of 26.1 µM, a GI50 (HCT-116 colon) of 3.18 µM and a TGI (HCT-116 colon) of 11.7 µM. The GI50 (HCT-15 colon) was 4.18 µM, the TGI (HCT-15 colon) was 16.7 µM and the GI50 (HL-60(TB) leukemia) was 11 µM. For the same compound, the TGI (HL-60(TB) leukemia) was 32.7 µM, the GI50 (HOP-62 NSCLC) was 15.6 µM and the TGI (HOP-62 NSCLC) was 33 µM. The GI50 (HS 578T breast) was 21.1 µM, the TGI (HS 578T breast) was 65.6 µM and the GI50 (HT29 colon) was 5.49 µM. It also gave a TGI (HT29 colon) of 21.2 µM, a GI50 (IGROV1 ovarian) of 12.4 µM and a TGI (IGROV1 ovarian) of 24.7 µM. For the same compound, the GI50 (K-562 leukemia) was 2.92 µM, the TGI (K-562 leukemia) was 20.5 µM and the GI50 (KM12 colon) was 3.8 µM. The TGI (KM12 colon) was 14.4 µM, the GI50 (LOX IMVI melanoma) was 4.63 µM and the TGI (LOX IMVI melanoma) was 16.1 µM. For the same compound, the GI50 (M14 melanoma) was 14.3 µM, the TGI (M14 melanoma) was 29 µM and the GI50 (MALME-3M melanoma) was 14.2 µM. It also gave a TGI (MALME-3M melanoma) of 27.1 µM, a GI50 (MCF7 breast) of 4.87 µM and a TGI (MCF7 breast) of 18.5 µM. It also gave a GI50 (MDA-MB-231 breast) of 13.4 µM, a TGI (MDA-MB-231 breast) of 25.5 µM and a GI50 (MDA-MB-435) of 14.4 µM. For the same compound, the TGI (MDA-MB-435) was 31.1 µM, the GI50 (MDA-MB-468 breast) was 7.1 µM and the TGI (MDA-MB-468 breast) was 20.1 µM. The GI50 (MOLT-4 leukemia) was 3.5 µM, the TGI (MOLT-4 leukemia) was 15.1 µM and the GI50 (NCI-H226 lung) was 14.4 µM. For the same compound, the TGI (NCI-H226 lung) was 32.3 µM, the GI50 (NCI-H23 lung) was 12 µM and the TGI (NCI-H23 lung) was 24.1 µM. It also gave a GI50 (NCI-H460 lung) of 9.17 µM, a TGI (NCI-H460 lung) of 44.9 µM and a GI50 (NCI-H522 lung) of 10.5 µM. It also gave a TGI (NCI-H522 lung) of 24.1 µM, a GI50 (NCI/ADR-RES ovarian) of 23.4 µM and a TGI (NCI/ADR-RES ovarian) of 90.2 µM. The GI50 (OVCAR-3 ovarian) was 10.3 µM, the TGI (OVCAR-3 ovarian) was 21.6 µM and the GI50 (OVCAR-4 ovarian) was 16.3 µM. The TGI (OVCAR-4 ovarian) was 36 µM, the GI50 (OVCAR-5 ovarian) was 11.9 µM and the TGI (OVCAR-5 ovarian) was 23.5 µM. For the same compound, the GI50 (OVCAR-8 ovarian) was 15.1 µM, the TGI (OVCAR-8 ovarian) was 35.6 µM and the GI50 (PC-3 prostate) was 16.5 µM. For the same compound, the TGI (PC-3 prostate) was 33.2 µM, the GI50 (RPMI-8226 leukemia) was 9.08 µM and the TGI (RPMI-8226 leukemia) was 28.2 µM. It also gave a GI50 (RXF 393 renal) of 12.3 µM, a TGI (RXF 393 renal) of 24.7 µM and a GI50 (SF-268 CNS) of 13.6 µM. The TGI (SF-268 CNS) was 31.6 µM, the GI50 (SF-295 CNS) was 12.8 µM and the TGI (SF-295 CNS) was 25.2 µM. For the same compound, the GI50 (SF-539 CNS) was 4.32 µM, the TGI (SF-539 CNS) was 15.7 µM and the GI50 (SK-MEL-2 melanoma) was 19.4 µM. It also gave a TGI (SK-MEL-2 melanoma) of 49.7 µM, a GI50 (SK-MEL-28 melanoma) of 14.9 µM and a TGI (SK-MEL-28 melanoma) of 27.5 µM. It also gave a GI50 (SK-MEL-5 melanoma) of 14.8 µM, a TGI (SK-MEL-5 melanoma) of 27.3 µM and a GI50 (SK-OV-3 ovarian) of 16.7 µM. The TGI (SK-OV-3 ovarian) was 31.1 µM, the GI50 (SN12C renal) was 7.37 µM and the TGI (SN12C renal) was 18.8 µM. It also gave a GI50 (SNB-19 CNS) of 13.4 µM, a TGI (SNB-19 CNS) of 25.4 µM and a GI50 (SR leukemia) of 1.83 µM. It also gave a TGI (SR leukemia) of 6.68 µM, a GI50 (SW-620 colon) of 6.38 µM and a TGI (SW-620 colon) of 29.5 µM. For the same compound, the GI50 (T-47D breast) was 8.86 µM, the TGI (T-47D breast) was 25.6 µM and the GI50 (TK-10 renal) was 13.9 µM. The TGI (TK-10 renal) was 26.6 µM, the GI50 (U251 CNS) was 7.44 µM and the TGI (U251 CNS) was 26.7 µM. For the same compound, the GI50 (UACC-257 melanoma) was 15.7 µM, the TGI (UACC-257 melanoma) was 32.2 µM and the GI50 (UACC-62 melanoma) was 12.8 µM. It also gave a TGI (UACC-62 melanoma) of 24.7 µM, a GI50 (UO-31 renal) of 6.05 µM and a TGI (UO-31 renal) of 18.5 µM.
